Assay results reported in patent US20240083900A1, “PYRAZOLO[1,5-A]PYRAZINE DERIVATIVES AS BTK INHIBITORS” (BIOGEN MA INC., priority 2020, published 2024).

Columns and labels:
[1] = tested on: CD69 expression on CD19+ B cells in human whole blood stimulated with anti-human IgD; assay: In Vitro whole blood CD69 Assay; assay type: cell-based; conditions: Homo sapiens, B-cell, human heparinized whole blood, anti-human IgD stimulation overnight, percentage of CD19+ B cells expressing CD69, flow cytometry; read-out: IC50
[2] = biological target: BTK (Homo sapiens (Human), UniProt Q06187); assay: In Vitro BTK Kinase Assay: Btk-PolyGAT-LS Assay; assay type: biochemical; conditions: BTK enzyme 0.25 nM, ATP 10 μM, polyGAT 100 nM, 30 minutes incubation, TRF readout; read-out: IC50
How it was run: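 Human BTK activity was measured with final 10 μM ATP and 100 nM polyGAT substrate in pH 7.5 Tris buffer with 10 mM MgCl2, DTT, Triton X-100 and casein.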

BTK, sequence (Q06187 whole entry): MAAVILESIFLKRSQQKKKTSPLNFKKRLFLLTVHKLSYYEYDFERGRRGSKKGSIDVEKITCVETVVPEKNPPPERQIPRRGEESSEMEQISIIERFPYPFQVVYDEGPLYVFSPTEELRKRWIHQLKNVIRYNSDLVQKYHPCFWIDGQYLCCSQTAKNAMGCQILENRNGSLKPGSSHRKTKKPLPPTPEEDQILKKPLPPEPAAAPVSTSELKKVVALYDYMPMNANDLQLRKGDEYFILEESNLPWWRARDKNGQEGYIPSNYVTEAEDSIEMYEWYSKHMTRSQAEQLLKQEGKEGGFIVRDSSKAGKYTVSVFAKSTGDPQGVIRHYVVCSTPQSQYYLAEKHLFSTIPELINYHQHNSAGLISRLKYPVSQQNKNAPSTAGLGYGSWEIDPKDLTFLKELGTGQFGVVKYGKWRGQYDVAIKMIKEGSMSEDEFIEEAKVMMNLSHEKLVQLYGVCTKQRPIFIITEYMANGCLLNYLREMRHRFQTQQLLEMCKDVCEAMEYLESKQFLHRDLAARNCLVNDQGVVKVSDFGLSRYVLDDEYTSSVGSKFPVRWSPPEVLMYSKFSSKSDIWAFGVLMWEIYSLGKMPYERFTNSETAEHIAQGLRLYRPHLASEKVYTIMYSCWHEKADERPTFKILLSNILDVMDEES

## Cn1cc(-c2cn3nccc3c(O[C@]3(C)C[C@H](NC(=O)/C=C/C(F)(F)F)C3)n2)cn1 [Example 231, (E)-4,4,4-trifluoro-N-((1s,3s)-3-methyl-3-((6-(1-methyl-1H-pyrazol-4-yl)pyrazolo[1,5-a]pyrazin-4-yl)oxy)cyclobutyl)but-2-enamide]
[1]
  IC50: < 1000 nM
[2]
  IC50: < 1 nM

## Cn1cc(-c2cn3nccc3c(O[C@]3(C)C[C@H](N(C)C(=O)/C=C/C(F)(F)F)C3)n2)cn1 [Example 232, (E)-4,4,4-trifluoro-N-methyl-N-((1s,3s)-3-methyl-3-((6-(1-methyl-1H-pyrazol-4-yl)pyrazolo[1,5-a]pyrazin-4-yl)oxy)cyclobutyl)but-2-enamide]
[1]
  IC50: < 1000 nM
[2]
  IC50: < 1 nM

## CC#CC(=O)N(CC(F)F)[C@H]1C[C@@](C)(Oc2nc(-c3cnn(C)c3)cn3nccc23)C1 [Example 233, N-(2,2-difluoroethyl)-N-((1s,3s)-3-methyl-3-((6-(1-methyl-1H-pyrazol-4-yl)pyrazolo[1,5-a]pyrazin-4-yl)oxy)cyclobutyl)but-2-ynamide]
[1]
  IC50: < 1000 nM
[2]
  IC50: < 1 nM

## C=CC(=O)N1[C@H]2CC[C@@H]1[C@H](Oc1nc(-c3cnn(C)c3)cn3nccc13)C2 [Example 234, 1-((1R,2R,4S)-2-((6-(1-methyl-1H-pyrazol-4-yl)pyrazolo[1,5-a]pyrazin-4-yl)oxy)-7-azabicyclo[2.2.1]heptan-7-yl)prop-2-en-1-one]
[1]
  IC50: 1000 to 10000 nM
[2]
  IC50: < 1 nM

## C=CC(=O)N1[C@@H]2CC[C@H]1[C@@H](Oc1nc(-c3cnn(C)c3)cn3nccc13)C2 [Example 235, 1-((1S,2S,4R)-2-((6-(1-methyl-1H-pyrazol-4-yl)pyrazolo[1,5-a]pyrazin-4-yl)oxy)-7-azabicyclo[2.2.1]heptan-7-yl)prop-2-en-1-one]
[1]
  IC50: < 1000 nM
[2]
  IC50: < 1 nM
